Test results taken from US11332459B2 (TEIJIN PHARMA LIMITED, priority 2017, dated 2022).
Counter-ions that a name gives are not always drawn.

target: T1, human TRPC6 (Homo sapiens, UniProt Q9Y210); assay: TRPC6 calcium flux assay (FLIPR, OAG-stimulated calcium influx); format: cell-based; conditions: HEK293 cells stably transfected with human TRPC6, read-out: hTRPC6 Potency
T1 construct: expressed in transfected cells
T1 sequence (Q9Y210 1-931): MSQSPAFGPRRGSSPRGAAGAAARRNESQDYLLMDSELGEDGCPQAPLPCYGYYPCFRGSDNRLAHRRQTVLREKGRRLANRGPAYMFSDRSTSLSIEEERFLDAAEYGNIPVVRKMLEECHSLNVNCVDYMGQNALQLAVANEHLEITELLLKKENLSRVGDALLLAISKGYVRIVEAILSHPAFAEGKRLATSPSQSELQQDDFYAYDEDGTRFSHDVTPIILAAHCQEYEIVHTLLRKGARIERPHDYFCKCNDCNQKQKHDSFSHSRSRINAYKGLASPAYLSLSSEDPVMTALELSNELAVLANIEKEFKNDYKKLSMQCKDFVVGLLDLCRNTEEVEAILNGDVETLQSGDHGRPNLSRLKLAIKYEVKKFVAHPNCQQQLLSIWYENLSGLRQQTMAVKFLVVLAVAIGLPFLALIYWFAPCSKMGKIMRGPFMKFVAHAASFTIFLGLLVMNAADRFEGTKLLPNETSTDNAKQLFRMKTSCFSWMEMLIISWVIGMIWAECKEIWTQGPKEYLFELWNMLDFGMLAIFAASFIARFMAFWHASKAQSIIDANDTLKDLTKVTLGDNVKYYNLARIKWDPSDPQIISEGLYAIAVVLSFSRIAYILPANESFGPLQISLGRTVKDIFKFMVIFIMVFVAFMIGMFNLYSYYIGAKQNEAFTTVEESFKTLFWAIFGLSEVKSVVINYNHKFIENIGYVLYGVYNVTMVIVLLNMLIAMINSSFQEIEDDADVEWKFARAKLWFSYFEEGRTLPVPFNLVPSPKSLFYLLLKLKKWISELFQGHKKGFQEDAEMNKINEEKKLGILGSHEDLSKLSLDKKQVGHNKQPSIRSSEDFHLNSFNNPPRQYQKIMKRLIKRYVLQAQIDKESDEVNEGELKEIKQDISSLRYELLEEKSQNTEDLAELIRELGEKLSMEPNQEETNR
How it was run: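 IC50 derived by plotting background-corrected peak fluorescence (180 s window, normalized to OAG-triggered signal vs buffer) against dose. Stable human TRPC6 HEK293 line was dye-loaded, exposed to compound 25 min, then challenged with 50 uM final OAG in 2 mM Ca2+ HEPES buffer pH 7.2, 0.5% DMSO.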

Point of comparison: `N[C@@H]1CN(c2nc3cc(F)ccc3n2Cc2ncc(Cl)cn2)CC[C@H]1O` [Example 494, (3R,4R)-3-amino-1-(1-((5-chloropyrimidin-2-yl)methyl)-5-fluoro-1H-benzo[d]imidazol-2-yl)piperidin-4-ol], IC50 12.6 nM. Against it:
- N[C@@H]1CN(c2nc3ccc(F)cc3n2CC(=O)N(CC(F)(F)F)C2CC2)CC[C@H]1F [Example 662, 2-(2-((3R,4R)-3-amino-4-fluoropiperidin-1-yl)-6-fluoro-1H-benzo[d]imidazol-1-yl)-N-cyclopropyl-N-(2,2,2-trifluoroethyl)acetamide] — 22-fold higher, 283 nM
- CC(c1ccccn1)N(C)C(=O)Cn1c(N2CC[C@@H](F)[C@H](N)C2)nc2cc(F)c(F)cc21 (mixture of isomers) [Example 608, 2-(2-((3R,4R)-3-amino-4-fluoropiperidin-1-yl)-5,6-difluoro-1H-benzo[d]imidazol-1-yl)-N-methyl-N-(1-(pyridin-2-yl)ethyl)acetamide] — within 1.5-fold, 18.3 nM
- N[C@@H]1CN(c2nc3cc(F)c(F)cc3n2Cc2ccc(OC(F)(F)F)cc2)CC[C@H]1F [Example 362, (3R,4R)-1-(5,6-difluoro-1-(4-(trifluoromethoxy)benzyl)-1H-benzimidazol-2-yl)-4-fluoro-3-piperidinamine] — 20-fold higher, 256 nM
- N[C@@H]1CN(c2nc3cc(F)c(F)cc3n2CC(=O)N2CCC(O)CC2)CC[C@H]1F [Example 640, 2-(2-((3R,4R)-3-amino-4-fluoropiperidin-1-yl)-5,6-difluoro-1H-benzo[d]imidazol-1-yl)-1-(4-hydroxypiperidin-1-yl)ethanone] — 64-fold higher, 809 nM
- CC(C)C1CCN1C(=O)Cn1c(N2CC[C@@H](F)[C@H](N)C2)nc2cc(F)c(F)cc21 (stereo partly drawn) [Example 625, 2-(2-((3R,4R)-3-amino-4-fluoropiperidin-1-yl)-5,6-difluoro-1H-benzo[d]imidazol-1-yl)-1-(2-isopropylazetidin-1-yl)ethanone] — 8.3-fold higher, 105 nM
- N#Cc1ccc(Cn2c(N3CC[C@@H](F)[C@H](N)C3)nc3c(F)cc(F)cc32)cc1 [Example 157, 4-((2-((3R,4R)-3-amino-4-fluoro-1-piperidinyl)-4,6-difluoro-1H-benzimidazol-1-yl)methyl)benzonitrile] — 25-fold lower, 0.501 nM
- N[C@@H]1CN(c2nc3cc(F)c(F)cc3n2Cc2ccc(Cl)c(F)c2)CC[C@H]1F [Example 360, (3R,4R)-1-(1-(4-chloro-3-fluorobenzyl)-5,6-difluoro-1H-benzimidazol-2-yl)-4-fluoro-3-piperidinamine] — 3.4-fold higher, 42.9 nM
- N#Cc1ccc(Cn2c(N3CCC(F)(F)[C@H](N)C3)nc3ccc(Cl)cc32)nc1 [Example 12, (R)-6-((2-(3-amino-4,4-difluoropiperidin-1-yl)-6-chloro-1H-benzo[d]imidazol-1-yl)methyl)nicotinonitrile] — 44-fold lower, 0.285 nM
- N#Cc1ccccc1Cn1c(N2CCC[C@@H](N)C2)nc2ccccc21 [Example 372, (R)-2-((2-(3-aminopiperidin-1-yl)-1H-benzo[d]imidazol-1-yl)methyl)benzonitrile] — 1100-fold higher, 14100 nM
- N[C@@H]1CN(c2nc3ncc(F)cc3n2Cc2ncc(Cl)cn2)CC[C@H]1F [Example 555, (3R,4R)-1-(1-((5-chloropyrimidin-2-yl)methyl)-6-fluoro-1H-imidazo[4,5-b]pyridin-2-yl)-4-fluoropiperidin-3-amine] — within 1.5-fold, 11.6 nM
- N#Cc1ccc(Cn2c(N3CCC[C@H](N)C3)nc3c(Cl)cc(Cl)cc32)nc1 [Example 57, (S)-6-((2-(3-aminopiperidin-1-yl)-4,6-dichloro-1H-benzo[d]imidazol-1-yl)methyl)nicotinonitrile] — 16-fold lower, 0.784 nM
- N[C@@H]1CN(c2nc3ccc(F)cc3n2CC(=O)NCCC(F)(F)F)CC[C@H]1F [Example 673, 2-(2-((3R,4R)-3-amino-4-fluoropiperidin-1-yl)-6-fluoro-1H-benzo[d]imidazol-1-yl)-N-(3,3,3-trifluoropropyl)acetamide] — higher, > 3750 nM
- CN(CC1CCOC1)C(=O)Cn1c(N2CC[C@@H](F)[C@H](N)C2)nc2cc(F)c(F)cc21 (mixture of isomers) [Example 633, 2-(2-((3R,4R)-3-amino-4-fluoropiperidin-1-yl)-5,6-difluoro-1H-benzo[d]imidazol-1-yl)-N-methyl-N-((tetrahydrofuran-3-yl)methyl)acetamide] — 19-fold higher, 240 nM
- CN(CC(F)(F)F)C(=O)Cn1c(N2CC[C@@H](N)C2)nc2ccc(F)cc21 [Example 490, (R)-2-(2-(3-aminopyrrolidin-1-yl)-6-fluoro-1H-benzo[d]imidazol-1-yl)-N-methyl-N-(2,2,2-trifluoroethyl)acetamide] — higher, > 3750 nM
- Cc1nnc(Cn2c(N3CC[C@@H](F)[C@H](N)C3)nc3cc(F)ccc32)s1 [Example 582, (3R,4R)-4-fluoro-1-(5-fluoro-1-((5-methyl-1,3,4-thiadiazol-2-yl)methyl)-1H-benzo[d]imidazol-2-yl)piperidin-3-amine] — 30-fold higher, 376 nM
- N[C@@H]1CN(c2nc3cc(F)c(F)cc3n2[C@@H]2CCN(C3CC3)C2=O)CC[C@H]1F [Example 547, (R)-3-(2-((3R,4R)-3-amino-4-fluoropiperidin-1-yl)-5,6-difluoro-1H-benzo[d]imidazol-1-yl)-1-cyclopropylpyrrolidin-2-one] — 3.5-fold higher, 43.7 nM
- N#Cc1ccc(Cn2c(N3CCC(F)(F)[C@H](N)C3)nc3cc(F)ccc32)nc1 [Example 71, (R)-6-((2-(3-amino-4,4-difluoropiperidin-1-yl)-5-fluoro-1H-benzo[d]imidazol-1-yl)methyl)nicotinonitrile hydrochloride] — 2.2-fold lower, 5.62 nM
- C[C@@H](c1cccc2cccnc12)n1c(N2CC[C@@H](F)[C@H](N)C2)nc2cc(F)c(F)cc21 [Example 262, (3R,4R)-1-(5,6-difluoro-1-((1S)-1-(8-quinolinyl)ethyl)-1H-benzimidazol-2-yl)-4-fluoro-3-piperidinamine] — 22-fold higher, 280 nM
- COc1ccnc(Cn2c(N3CC[C@@H](F)[C@H](N)C3)nc3cc(F)ccc32)c1 [Example 524, (3R,4R)-4-fluoro-1-(5-fluoro-1-((4-methoxypyridin-2-yl)methyl)-1H-benzo[d]imidazol-2-yl)piperidin-3-amine] — 120-fold higher, 1490 nM
- COc1cccc2c1nc(N1CCC(F)(F)[C@H](N)C1)n2Cc1ccc(C#N)cc1 [Example 410, (R)-4-((2-(3-amino-4,4-difluoropiperidin-1-yl)-4-methoxy-1H-benzo[d]imidazol-1-yl)methyl)benzonitrile] — within 1.5-fold, 10.5 nM
- Cc1nc(Cn2c(N3CC[C@@H](F)[C@H](N)C3)nc3cc(F)c(F)cc32)no1 [Example 572, (3R,4R)-1-(5,6-difluoro-1-((5-methyl-1,2,4-oxadiazol-3-yl)methyl)-1H-benzo[d]imidazol-2-yl)-4-fluoropiperidin-3-amine] — 8.4-fold higher, 106 nM
- CN(C)C(=O)Cn1c(N2CC[C@@H](F)[C@H](N)C2)nc2cc(F)cc(F)c21 [Example 594, 2-(2-((3R,4R)-3-amino-4-fluoropiperidin-1-yl)-5,7-difluoro-1H-benzo[d]imidazol-1-yl)-N,N-dimethylacetamide] — higher, > 3750 nM
- N#Cc1ccc(Cn2c(N3CCC[C@@H](N)C3)nc3ccccc32)c(Cl)c1 [Example 394, (R)-4-((2-(3-aminopiperidin-1-yl)-1H-benzo[d]imidazol-1-yl)methyl)-3-chlorobenzonitrile] — 58-fold higher, 732 nM
- Cc1nnc(Cn2c(N3CC[C@@H](F)[C@H](N)C3)nc3c(F)cc(F)cc32)s1 [Example 552, (3R,4R)-1-(4,6-difluoro-1-((5-methyl-1,3,4-thiadiazol-2-yl)methyl)-1H-benzo[d]imidazol-2-yl)-4-fluoropiperidin-3-amine] — 1.9-fold lower, 6.51 nM
- N#Cc1ccc(Cn2c(N3CCC[C@]4(CCCN4)C3)nc3ccccc32)nc1 [Example 135, 6-((2-((5R)-1,7-diazaspiro[4.5]decan-7-yl)-1H-benzimidazol-1-yl)methyl)-3-pyridinecarbonitrile] — higher, > 3750 nM
- CN(C)C(=O)Cn1c(N2CC[C@@H](F)[C@H](N)C2)nc2cc(Cl)ccc21 [Example 506, 2-(2-((3R,4R)-3-amino-4-fluoropiperidin-1-yl)-5-chloro-1H-benzo[d]imidazol-1-yl)-N,N-dimethylacetamide] — 6.1-fold higher, 76.6 nM
- C[C@@H](c1ccc(C#N)cn1)n1c(N2CC[C@@H](F)[C@H](N)C2)nc2ccccc21 [Example 298, 6-((S)-1-(2-((3R,4R)-3-amino-4-fluoropiperidin-1-yl)-1H-benzo[d]imidazol-1-yl)ethyl)nicotinonitrile hydrochloride] — within 1.5-fold, 17.2 nM
- N[C@@H]1CN(c2nc3ccc(F)cc3n2CC(=O)Nc2nccs2)CC[C@H]1F [Example 660, 2-(2-((3R,4R)-3-amino-4-fluoropiperidin-1-yl)-6-fluoro-1H-benzo[d]imidazol-1-yl)-N-(thiazol-2-yl)acetamide] — 2.5-fold lower, 5.04 nM
